From article PMC7034070, “Synthesis, anti-inflammatory, cytotoxic, and COX-1/2 inhibitory activities of cyclic imides bearing 3-benzenesulfonamide, oxime, and β-phenylalanine scaffolds: a molecular docking study” (Journal of Enzyme Inhibition and Medicinal Chemistry, 2020)
Several values for one entry are separate records, joined by “and”; a condition that tells them apart may be missing. Equal entries are not always repeated.

Legend:
[1] = tested on: NCI-H522 (NSC Lung Cancer); experiment: NCI 59 cell line panel, single dose; assay type: cell-based; conditions: NCI-H522, one dose 10.0 μM
[2] = tested on: carrageenan induced rat paw oedema; experiment: rat carrageenan-induced foot paw oedema model; assay type: in vivo; conditions: for Mean % increase in paw weight ± SEM / % Inhibition of paw oedema from control group: 2 h after carrageenan; for Mean % increase in paw weight ± SEM: control group 165.6 ± 1.6; for % Inhibition of paw oedema from control group: single dose screen (Table 1)
Procedure: Anti-inflammatory assessment of the newly synthesised compounds was carried out using an in vivo rat carrageenan-induced foot paw oedema model, as reported previously[16]^,[17].

COX-2 = molecular target: T1, COX-2 (Ovis aries, UniProt P79208); experiment: colorimetric COX (ovine) inhibitor screening assay kit; assay type: biochemical; conditions: for SI, selectivity index (COX-1 IC50/COX-2 IC50): ovine COX-1/COX-2; for IC50: ovine COX-2, mean of two determinations
T1 construct: purchased Cayman Chemicals Inc., Ann Arbour, MI
T1 sequence (P79208 17-603): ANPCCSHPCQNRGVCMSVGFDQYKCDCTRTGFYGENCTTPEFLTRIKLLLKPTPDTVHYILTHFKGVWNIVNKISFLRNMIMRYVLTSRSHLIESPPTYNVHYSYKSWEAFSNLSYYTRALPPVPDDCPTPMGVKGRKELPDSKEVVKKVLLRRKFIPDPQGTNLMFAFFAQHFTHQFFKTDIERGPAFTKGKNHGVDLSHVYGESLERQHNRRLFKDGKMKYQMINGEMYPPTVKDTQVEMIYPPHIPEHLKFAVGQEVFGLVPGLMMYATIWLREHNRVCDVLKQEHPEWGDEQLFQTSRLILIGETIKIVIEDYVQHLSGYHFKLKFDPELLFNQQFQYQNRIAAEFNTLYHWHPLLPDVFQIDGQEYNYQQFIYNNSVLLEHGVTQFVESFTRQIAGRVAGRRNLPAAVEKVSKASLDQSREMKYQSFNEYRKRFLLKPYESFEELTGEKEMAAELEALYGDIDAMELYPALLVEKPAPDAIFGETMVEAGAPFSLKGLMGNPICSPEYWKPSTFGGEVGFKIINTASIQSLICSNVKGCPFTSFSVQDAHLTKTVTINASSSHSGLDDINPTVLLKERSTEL
Excerpt: (§1) To determine the relative ability of the test compounds and reference drugs to inhibit COX-1/COX-2 isozymes, we used the colorimetric COX (ovine) inhibitor screening assay kit (Cayman Chemicals Inc., Ann Arbour, MI), according to the manufacturer’s instructions[3]^,[10]^,[11]^,[20].

COX-1 = molecular target: T2, COX-1 (Ovis aries, UniProt P05979); experiment: as above; assay type: biochemical; conditions: ovine COX-1, mean of two determinations
T2 construct: purchased Cayman Chemicals Inc., Ann Arbour, MI
T2 sequence (P05979 25-600): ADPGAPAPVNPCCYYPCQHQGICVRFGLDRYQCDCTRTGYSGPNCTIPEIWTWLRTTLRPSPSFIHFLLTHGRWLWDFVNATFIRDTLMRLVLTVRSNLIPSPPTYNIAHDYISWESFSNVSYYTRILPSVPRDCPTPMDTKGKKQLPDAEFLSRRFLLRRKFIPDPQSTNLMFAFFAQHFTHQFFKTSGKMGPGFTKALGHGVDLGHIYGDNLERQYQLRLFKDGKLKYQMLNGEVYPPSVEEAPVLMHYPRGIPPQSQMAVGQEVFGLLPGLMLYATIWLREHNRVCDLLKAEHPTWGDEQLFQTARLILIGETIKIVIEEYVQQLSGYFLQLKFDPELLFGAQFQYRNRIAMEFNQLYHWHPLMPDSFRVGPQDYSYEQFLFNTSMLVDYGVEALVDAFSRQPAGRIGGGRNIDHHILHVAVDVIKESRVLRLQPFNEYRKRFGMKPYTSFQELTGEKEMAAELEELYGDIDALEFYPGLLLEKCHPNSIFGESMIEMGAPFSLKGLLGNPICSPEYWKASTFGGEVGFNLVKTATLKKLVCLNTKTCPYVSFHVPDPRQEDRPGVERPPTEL
Excerpt: as §1

59 cancer cell lines = experiment: full NCI 59 cell line panel assay, single dose; assay type: cell-based; conditions: one dose 10.0 μM, 59 cell lines
UO-31 (Renal Cancer) = experiment: NCI 59 cell line panel, single dose; assay type: cell-based; conditions: UO-31, one dose 10.0 μM
SNB-75 (CNS Cancer) = experiment: NCI 59 cell line panel, single dose; assay type: cell-based; conditions: SNB-75, one dose 10.0 μM
HOP-92 (NSC Lung Cancer) = experiment: NCI 59 cell line panel, single dose; assay type: cell-based; conditions: HOP-92, one dose 10.0 μM
CAKI-1 (Renal Cancer) = experiment: NCI 59 cell line panel, single dose; assay type: cell-based; conditions: CAKI-1, one dose 10.0 μM
mice = experiment: Ulcerogenicity measurement; assay type: in vivo
Procedure: Ulcerogenicity was evaluated according to a previously reported method[6]^a,[17]^,[18]. The number and total length of the ulcers for each animal were measured and their averages were calculated and used as the ulcer indices.

A498 (Renal Cancer) = experiment: NCI 59 cell line panel, single dose; conditions: A498, one dose 10.0 μM
Excerpt: (§2) These cell lines were obtained from nine different organs including leukaemia, non-small cell lung, colon, CNS, melanoma, ovarian, renal, prostate, and breast[19].

HCT-116 (Colon Cancer) = experiment: NCI 59 cell line panel, single dose; conditions: HCT-116, one dose 10.0 μM
Excerpt: as §2

SF-539 (CNS Cancer) = experiment: NCI 59 cell line panel, single dose; conditions: SF-539, one dose 10.0 μM
Excerpt: as §2

SR (Leukaemia) = experiment: NCI 59 cell line panel, single dose; conditions: one dose 10.0 μM
LOX IMVI (Melanoma) = experiment: NCI 59 cell line panel, single dose; conditions: one dose 10.0 μM
Excerpt: as §2

[3] = tested on: NCI-H226 (NSC Lung Cancer); experiment: NCI 59 cell line panel, single dose; conditions: NCI-H226, one dose 10.0 μM
[4] = tested on: MDA-MB-231/ATCC (Breast Cancer); experiment: NCI 59 cell line panel, single dose; conditions: one dose 10.0 μM
HT29 (Colon Cancer) = experiment: NCI 59 cell line panel, single dose; conditions: HT29, one dose 10.0 μM
Excerpt: as §2

U251 (CNS Cancer) = experiment: NCI 59 cell line panel, single dose; conditions: U251, one dose 10.0 μM
Excerpt: as §2

SF-295 (CNS Cancer) = experiment: NCI 59 cell line panel, single dose; conditions: SF-295, one dose 10.0 μM
Excerpt: as §2

PC-3 (Prostate Cancer) = experiment: NCI 59 cell line panel, single dose; assay type: cell-based; conditions: PC-3, one dose 10.0 μM
PRMI-8226 (Leukaemia) = experiment: NCI 59 cell line panel, single dose; conditions: PRMI-8226, one dose 10.0 μM
[5] = tested on: MDA-MB-468 (Breast Cancer); experiment: NCI 59 cell line panel, single dose; conditions: MDA-MB-468, one dose 10.0 μM
EKVX (NSC Lung Cancer) = experiment: NCI 59 cell line panel, single dose; conditions: one dose 10.0 μM
HCT-15 (Colon Cancer) = experiment: NCI 59 cell line panel, single dose; conditions: HCT-15, one dose 10.0 μM
Excerpt: as §2

DU-145 (Prostate Cancer) = experiment: NCI 59 cell line panel, single dose; conditions: DU-145, one dose 10.0 μM
Excerpt: as §2

[6] = tested on: NCI-H23 (NSC Lung Cancer); experiment: NCI 59 cell line panel, single dose; conditions: NCI-H23, one dose 10.0 μM
Excerpt: as §2

T-47D (Breast Cancer) = experiment: NCI 59 cell line panel, single dose; conditions: one dose 10.0 μM
MOLT-4 (Leukaemia) = experiment: NCI 59 cell line panel, single dose; conditions: MOLT-4, one dose 10.0 μM

SMILES	melting point [°C]	Mean % increase in paw weight ± SEM [2] [%]	% Inhibition of paw oedema from control group [2]	SI, selectivity index (COX-1 IC50/COX-2 IC50) (COX-2)	IC50 (COX-2) [µM]	IC50 (COX-1) [µM]	PCE (positive cytotoxic effect: cell lines with growth inhibition >10% / total number of cell lines) (59 cancer cell lines)	GI% (UO-31 (Renal Cancer)) [%]	GI% (SNB-75 (CNS Cancer)) [%]	also measured
NS(=O)(=O)c1cccc(N2C(=O)C3CC=CCC3C2=O)c1 (centres unmarked) [Compound 3, 3-(1,3-Dioxo-1,3,3a,4,7,7a-hexahydro-2H-isoindol-2-yl)benzenesulfonamide]	159 to 161	42.4 ± 0.2	77.0% and 77.0 ± 0.6%	>250.0	0.2	> 50	3/59	16	12	GI% [1]: 12%
NS(=O)(=O)c1cccc(N2C(=O)c3c(Cl)c(Cl)c(Cl)c(Cl)c3C2=O)c1 [Compound 8]		134.0 ± 0.9	26.9% and 26.9 ± 0.5%				3/59	17	13	GI% (HOP-92 (NSC Lung Cancer)): 11%
CC(=NO)c1ccc(N2C(=O)CCC2=O)cc1 [Compound 11, 1-(4-(1-(Hydroxyimino)ethyl)phenyl)pyrrolidine-2,5-dione]	184 to 186	45.0 ± 0.3	75.6% and 75.6 ± 0.6%	>227.3	0.22	> 50				
NS(=O)(=O)c1cccc(N2C(=O)CCC2=O)c1 [Compound 2, 3-(2,5-Dioxopyrrolidin-1-yl)benzenesulfonamide]	195 to 197	53.2 ± 0.4	71.2% and 71.2 ± 0.5%	>192.3	0.26	> 50	3/59	13		GI% (CAKI-1 (Renal Cancer)): 12%; GI% [1]: 12%
CC(C)(C)c1ccc2c(c1)C(=O)N(c1cccc(S(N)(=O)=O)c1)C2=O [Compound 6, 3-(5-(tert-Butyl)-1,3-dioxoisoindolin-2-yl)benzenesulfonamide]	151 to 153	106.1 ± 0.9	40.9% and 40.9 ± 0.6%	>12.5	4	> 50	2/59		12	GI% (HOP-92 (NSC Lung Cancer)): 19%
O=C(O)CC(c1ccccc1)N1C(=O)c2ccc([N+](=O)[O-])cc2C1=O (centres unmarked) [Compound 28, 3-(5-Nitro-1,3-dioxoisoindolin-2-yl)-3-phenylpropanoic acid]	191 to 193	100.9 ± 0.8	42.5% and 42.5 ± 0.2%	0.61	30	18.2				
CC(=NO)c1ccc(N2C(=O)c3ccc([N+](=O)[O-])cc3C2=O)cc1 [Compound 18, 2-(4-(1-(Hydroxyimino)ethyl)phenyl)-5-nitroisoindoline-1,3-dione]	269 to 271	31.6 ± 0.4	82.9% and 82.9 ± 0.8%	>333.3	0.15	> 50				Average number of ulcers (mice; mice): 2; Mean sum of lengths of elongated ulcer (mice; mice, ± SEM): 0.9 ± 0.08 mm; level of ulcerogenic activity (in words) (mice; relative to diclofenac and celecoxib): very low levels of ulcerogenic activity; Percentage inhibition of paw oedema from control group ([2]; dose 45 mg/kg): 70.1%; Percentage inhibition of paw oedema from control group ([2]; dose 65 mg/kg): 82.9%; Percentage inhibition of paw oedema from control group ([2]; dose 80 mg/kg): 91.9%; ED50 ([2]; from three graded doses (45, 65, 80 mg/kg)): 35.4 mg/kg
Cc1ccc(NC(=O)c2ccc(CN3CCN(C)CC3)cc2)cc1Nc1nccc(-c2cccnc2)n1 [Imatinib]							20/59			GI% (A498 (Renal Cancer)): 13.7%; GI% (HCT-116 (Colon Cancer)): 18.6%; GI% (SF-539 (CNS Cancer)): 24.5%; GI% (SR (Leukaemia)): 14.6%; GI% (LOX IMVI (Melanoma)): 11.6%; GI% [3]: 10.6%; GI% [4]: 11.2%; GI% (HT29 (Colon Cancer)): 47.1%; GI% (U251 (CNS Cancer)): 10.6%; GI% (SF-295 (CNS Cancer)): 15.1%; GI% (PC-3 (Prostate Cancer)): 10.6%; GI% (PRMI-8226 (Leukaemia)): 12.6%; GI% [5]: 29.1%; GI% (EKVX (NSC Lung Cancer)): 15.7%; GI% (HCT-15 (Colon Cancer)): 11.5%; GI% (DU-145 (Prostate Cancer)): 14.4%; GI% [6]: 17.1%; GI% (T-47D (Breast Cancer)): 18.6%; GI% (MOLT-4 (Leukaemia)): 18.0%
